From patent US11306072B2, “5-bromo-indirubins” (City of Hope, priority 2013, dated 2022) come the findings set out here.

A word on the IC50: it is the concentration needed to halve the response being measured.

One test deals with T1, AuroraA (Homo sapiens, UniProt O14965).
T1 sequence (O14965 1-403): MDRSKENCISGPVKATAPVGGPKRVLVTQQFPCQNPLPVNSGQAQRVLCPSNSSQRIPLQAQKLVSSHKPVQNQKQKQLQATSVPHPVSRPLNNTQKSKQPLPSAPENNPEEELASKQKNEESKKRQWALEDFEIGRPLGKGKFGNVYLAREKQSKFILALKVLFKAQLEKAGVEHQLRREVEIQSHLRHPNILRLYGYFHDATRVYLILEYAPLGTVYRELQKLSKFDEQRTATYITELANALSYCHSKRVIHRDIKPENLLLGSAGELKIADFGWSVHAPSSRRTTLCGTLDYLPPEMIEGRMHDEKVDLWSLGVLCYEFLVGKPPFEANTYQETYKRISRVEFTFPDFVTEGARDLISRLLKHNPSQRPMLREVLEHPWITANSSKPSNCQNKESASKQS
In words: In vitro kinase assay with recombinant protein (33P-ATP), AuroraA. It is filed as biochemical. The note with it: 120 min at room temperature, read-out: IC50 against kinase activity in vitro, AuroraA. How it is done:
(§1) The kinase assays were performed with recombinant proteins. Briefly, proteins, freshly prepared substrates and ^33P-ATP (specific activity 0.01 μCi/μl final) were mixed in reaction buffer (20 mM HEPES pH 7.5, 10 mM MgCl2, 1 mM EGTA, 0.02% Brij35, 0.02 mg/ml BSA, 0.1 mM Na3VO4, 2 mM DTT) in the presence of DMSO as control or 5BIODs. The mixtures were reacted for 120 min at room temperature. Samples were transferred onto P81 ion exchange paper and filters were extensively washed with 0.75% phosphoric acid. The radioactivities were monitored.

The target in the next test is ABL1 (Homo sapiens, UniProt P00519). The test can be described thus: In vitro kinase assay with recombinant protein (33P-ATP), ABL1. In kind it is biochemical. The note with it: 120 min at room temperature, read-out: IC50 against kinase activity in vitro, ABL1. How it is done:
as §1

Another test has as its target ABL1 (T315I) (Homo sapiens, UniProt P00519, T315I). In words: In vitro kinase assay with recombinant protein (33P-ATP), ABL1 (T315I). It is filed as biochemical. The settings on record: 120 min at room temperature, read-out: IC50 against kinase activity in vitro, ABL1 (T315I). How it is done:
as §1

A further test concerns the target TYK2 (Homo sapiens, UniProt P29597). The test can be described thus: In vitro kinase assay with recombinant protein (33P-ATP), TYK2. It is filed as biochemical. The note with it: 120 min at room temperature, read-out: IC50 against kinase activity in vitro, TYK2. How it is done: as §1
The next test has as its system A2058 melanoma cells. The test can be described thus: MTS cell viability assay, A2058 melanoma cells. The settings on record: quadruplicate, read-out: IC50 values against cancer cells, A2058 melanoma. It is filed as cell-based, human. How it is done: (§2) FIGS. 2A-2G. Effects of 5BIODs on viabilities of human cancer cells; MTS assays were performed for cell viability; human A549 non-small cell lung cancer (FIG. 2A), MDA-MB-231 and MDA-MB-468 breast cancer (FIG. 2B), A2058 melanoma (FIG. 2C), DU145 prostate cancer (FIG. 2D), SKOV3 ovarian cancer (FIG. 2E), T315I Abl mutant KCL-22 CML (FIG. 2F) and MIA-PaCa2 pancreatic cancer (FIG. 2G) cells were seeded in 96-well plates (5000/well for solid tumor cell lines and 10000 cells/well for CML cell line), incubated overnight at 37° C. in 5% (v/v) CO2 and exposed to 5BIODs at 1 μM or 10 μM concentration for 48 h; DMSO was used as the vehicle control; cell viability was determined by tetrazolium conversion to its formazan dye and absorbance was measured at 490 nm using an automated ELISA plate reader; each experiment was performed in quadruplicate. Histogram ordering: FIG. 2B depicts MDA-MB-231 (black) and MDA-MB-468 (gray), in order left to right; FIG. 2C: 1 μM (gray); 10 μM (black), in order left to right; FIG. 2D: 1 μM (gray); 10 μM (black), in order left to right;
For orientation: Tetrazolium dyes change colour on reduction, which living cells bring about.

The target of the next test is JAK2 (Homo sapiens, UniProt O60674). The test can be described thus: In vitro kinase assay with recombinant protein (33P-ATP), JAK2. In kind it is biochemical. The note with it: 120 min at room temperature, read-out: IC50 against kinase activity in vitro, JAK2. How it is done: as §1
Test [1] has as its system DU145 prostate cancer cells. The test can be described thus: MTS cell viability assay, DU145 prostate cancer cells. It is filed as cell-based, human. The note with it: quadruplicate, read-out: IC50 values against cancer cells, DU145 prostate.
Another test concerns the target c-Src (Homo sapiens, UniProt P12931). In words: In vitro kinase assay with recombinant protein (33P-ATP), c-Src. It is filed as biochemical. The settings on record: 120 min at room temperature, read-out: IC50 against kinase activity in vitro, c-Src. How it is done:
as §1

The subject of test [2] is SKOV3 ovarian cancer cells. In words: MTS cell viability assay, SKOV3 ovarian cancer cells. In kind it is cell-based, human. The settings on record: for IC50: Homo sapiens, SK-OV-3, MTS cell viability, 48 h exposure, quadruplicate, read-out: IC50 values against cancer cells, SKOV3 ovarian; for effect on viabilities of SKOV3 ovarian cancer cells: MTS assay, FIG. 3 legend, result in words.

Test [3] deals with MIA-PaCa2 pancreatic cancer cells. In words: MTS cell viability assay, MIA-PaCa2 pancreatic cancer cells. In kind it is cell-based. The note with it: Homo sapiens, 48 h exposure, quadruplicate, read-out: IC50 values against cancer cells, PaCa2 pancreatic. How it is done: as §2
Test [4] concerns MDA-MB-231 breast cancer cells. The test can be described thus: MTS cell viability assay, MDA-MB-231 breast cancer cells. In kind it is cell-based. The settings on record: Homo sapiens, 48 h exposure, quadruplicate, read-out: IC50 values against cancer cells, MDA-MB-231 breast. How it is done:
as §2

For test [5], the system named is A549 non-small cell lung cancer cells. In words: MTS cell viability assay, A549 lung cancer cells. It is filed as cell-based. The settings on record: Homo sapiens, 48 h exposure, quadruplicate, read-out: IC50 values against cancer cells, A549 lung. How it is done:
as §2

Test [6] concerns T315I Abl mutant KCL-22 CML cells. The test can be described thus: MTS cell viability assay, T315I Abl mutant KCL-22 CML cells. The settings on record: Homo sapiens, 48 h exposure, quadruplicate, read-out: IC50 values against cancer cells, T315l Alb mutant KCL-22 CML. In kind it is cell-based. How it is done:
as §2

The mark [7] stands for this setting: Homo sapiens, DU-145, 48 h exposure.
Setting [8] is: Homo sapiens, A2058, 48 h exposure.
Setting [9] is: Homo sapiens, A2058, 48 h, 48 h exposure.
Setting [10] is: Homo sapiens, DU-145, 48 h, 48 h exposure.

Molecules are shown by their SMILES. Like-named read-outs stand apart in the source and are kept apart here.

JAK2, sequence (O60674 whole entry): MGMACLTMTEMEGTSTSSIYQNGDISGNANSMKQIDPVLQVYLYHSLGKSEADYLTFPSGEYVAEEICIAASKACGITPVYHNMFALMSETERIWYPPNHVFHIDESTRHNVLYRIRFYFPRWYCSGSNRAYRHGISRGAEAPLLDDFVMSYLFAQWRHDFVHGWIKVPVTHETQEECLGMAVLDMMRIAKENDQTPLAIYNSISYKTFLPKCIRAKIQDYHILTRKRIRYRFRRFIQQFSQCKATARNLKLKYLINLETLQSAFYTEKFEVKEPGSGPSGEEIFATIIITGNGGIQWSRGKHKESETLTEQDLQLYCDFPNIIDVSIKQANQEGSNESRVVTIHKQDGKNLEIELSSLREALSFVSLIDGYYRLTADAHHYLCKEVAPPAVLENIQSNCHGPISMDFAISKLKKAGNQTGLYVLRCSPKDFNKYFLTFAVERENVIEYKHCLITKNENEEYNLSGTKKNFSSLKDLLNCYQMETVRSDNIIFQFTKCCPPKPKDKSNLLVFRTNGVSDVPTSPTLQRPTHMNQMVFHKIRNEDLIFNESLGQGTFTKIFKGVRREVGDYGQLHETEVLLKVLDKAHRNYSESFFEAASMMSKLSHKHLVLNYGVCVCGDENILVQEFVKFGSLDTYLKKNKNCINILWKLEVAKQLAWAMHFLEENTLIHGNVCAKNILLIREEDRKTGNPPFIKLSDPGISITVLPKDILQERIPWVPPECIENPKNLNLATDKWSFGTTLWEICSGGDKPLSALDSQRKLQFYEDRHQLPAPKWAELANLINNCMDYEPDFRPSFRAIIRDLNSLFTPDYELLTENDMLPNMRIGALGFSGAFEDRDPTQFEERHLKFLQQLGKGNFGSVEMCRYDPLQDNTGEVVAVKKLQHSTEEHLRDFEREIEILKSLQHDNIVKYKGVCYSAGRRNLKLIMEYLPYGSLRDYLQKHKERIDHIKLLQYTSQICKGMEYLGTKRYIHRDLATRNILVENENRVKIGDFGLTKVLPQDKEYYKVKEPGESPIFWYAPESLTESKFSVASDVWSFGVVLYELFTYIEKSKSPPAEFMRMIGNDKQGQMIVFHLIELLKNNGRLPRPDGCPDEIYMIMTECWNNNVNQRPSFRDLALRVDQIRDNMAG
TYK2, sequence (P29597 whole entry): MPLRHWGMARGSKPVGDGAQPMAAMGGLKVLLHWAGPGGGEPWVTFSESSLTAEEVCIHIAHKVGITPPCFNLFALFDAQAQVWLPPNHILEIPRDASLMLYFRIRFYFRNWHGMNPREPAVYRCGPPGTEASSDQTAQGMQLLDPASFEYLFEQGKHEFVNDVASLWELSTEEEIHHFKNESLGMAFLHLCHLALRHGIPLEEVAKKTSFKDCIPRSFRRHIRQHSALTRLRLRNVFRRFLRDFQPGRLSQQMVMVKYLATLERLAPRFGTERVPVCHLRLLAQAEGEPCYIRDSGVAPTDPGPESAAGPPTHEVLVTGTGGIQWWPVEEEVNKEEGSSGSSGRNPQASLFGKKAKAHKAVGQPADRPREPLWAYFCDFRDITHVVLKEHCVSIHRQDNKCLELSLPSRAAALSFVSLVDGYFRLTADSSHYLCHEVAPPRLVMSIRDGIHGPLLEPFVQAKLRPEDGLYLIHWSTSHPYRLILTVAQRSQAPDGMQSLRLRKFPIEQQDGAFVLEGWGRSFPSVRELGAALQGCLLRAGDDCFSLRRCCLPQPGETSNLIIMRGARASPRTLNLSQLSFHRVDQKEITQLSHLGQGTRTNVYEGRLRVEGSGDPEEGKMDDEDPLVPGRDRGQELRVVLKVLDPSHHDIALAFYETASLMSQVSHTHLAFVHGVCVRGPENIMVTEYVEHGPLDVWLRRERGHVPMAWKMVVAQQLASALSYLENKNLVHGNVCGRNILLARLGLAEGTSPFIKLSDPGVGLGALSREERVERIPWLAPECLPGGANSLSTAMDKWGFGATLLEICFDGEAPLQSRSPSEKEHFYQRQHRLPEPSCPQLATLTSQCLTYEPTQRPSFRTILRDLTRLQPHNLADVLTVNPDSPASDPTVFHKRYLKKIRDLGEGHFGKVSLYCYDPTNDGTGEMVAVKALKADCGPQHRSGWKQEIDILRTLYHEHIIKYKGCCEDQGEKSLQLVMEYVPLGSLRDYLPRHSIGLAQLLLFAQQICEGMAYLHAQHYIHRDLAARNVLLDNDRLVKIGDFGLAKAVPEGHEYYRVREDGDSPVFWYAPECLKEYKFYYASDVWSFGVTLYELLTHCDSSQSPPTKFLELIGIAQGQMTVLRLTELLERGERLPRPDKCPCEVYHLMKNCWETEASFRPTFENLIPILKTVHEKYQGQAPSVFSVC
c-Src, sequence (P12931 whole entry): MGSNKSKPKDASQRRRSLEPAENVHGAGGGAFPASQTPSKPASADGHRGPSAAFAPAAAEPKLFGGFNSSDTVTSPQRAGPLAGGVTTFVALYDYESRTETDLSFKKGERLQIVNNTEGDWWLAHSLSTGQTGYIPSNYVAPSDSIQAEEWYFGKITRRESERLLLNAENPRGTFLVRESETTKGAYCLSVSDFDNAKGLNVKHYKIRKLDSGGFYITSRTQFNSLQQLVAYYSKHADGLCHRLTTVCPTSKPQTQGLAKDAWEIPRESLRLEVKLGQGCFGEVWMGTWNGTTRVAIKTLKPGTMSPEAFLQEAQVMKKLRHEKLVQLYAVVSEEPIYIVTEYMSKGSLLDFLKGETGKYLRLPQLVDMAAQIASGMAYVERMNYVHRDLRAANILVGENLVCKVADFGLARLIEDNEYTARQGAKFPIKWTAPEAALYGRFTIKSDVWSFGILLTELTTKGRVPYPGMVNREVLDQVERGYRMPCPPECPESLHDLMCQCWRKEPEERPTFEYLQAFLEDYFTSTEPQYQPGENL

`CN(CCO/N=C1/C(=C2/C(=O)Nc3ccc(Br)cc32)Nc2ccccc21)CC(O)CO` (centres unmarked) [Compound 1279]: the IC50 on AuroraA was 301 nM; at ABL1, 1440 nM; at ABL1 (T315I), 5550 nM; at TYK2, 62.7 nM; with A2058 melanoma cells (48 h exposure), 2200 nM; on JAK2, 410 nM. The half-maximal inhibitory concentration (IC50) in test [1] (48 h exposure) was found to be 2000 nM; at c-Src it was 69.6 nM.

As for `O=C1Nc2ccc(Br)cc2/C1=C1/Nc2ccccc2/C1=N\OCCN1CCN(CCO)CC1` [Compound 1282], the IC50 in test [2] is 770 nM; in test [3], 1000 nM; in test [4], 780 nM; in test [5] it was 500 nM; in test [1] (setting [7]), 910 nM.

For the molecule `O=C1Nc2ccc(Br)cc2/C1=C1/Nc2ccccc2/C1=N\OCCN1CCN(CCOCCO)CC1` [Compound 1286], the values for the IC50 in [2], in test [4] and in test [5] were 1840 nM, 1360 nM and 930 nM, respectively.

For `CCCN(CCC)CCO/N=C1/C(=C2/C(=O)Nc3ccc(Br)cc32)Nc2ccccc21` [Compound 1502], the IC50 with A2058 melanoma cells (setting [8]) was 1700 nM; in test [1] (setting [7]), 1500 nM.

With `CCN(CC)CCO/N=C1/C(=C2/C(=O)Nc3ccc(Br)cc32)Nc2ccccc21` [Compound 1276], the IC50 in [2] turned out to be 410 nM; at AuroraA it was 954 nM; on ABL1, 1020 nM; in test [3], 1200 nM; on ABL1 (T315I) it was 6580 nM; in [4] it was 300 nM. In addition, the IC50 in test [6] was determined as 300 nM; at TYK2, 31.6 nM; with A2058 melanoma cells (setting [9]), 360 nM; in test [5], 470 nM; at JAK2 it was 526 nM; in test [1] (setting [10]), 420 nM. In addition, the IC50 at c-Src was found to be 34.3 nM. In addition, the “effect on viabilities of SKOV3 ovarian cancer cells” value in test [2] is on record as “reduce viabilities”.

For the molecule `CCN(CC)CCON=C1C(=C2C(=O)Nc3ccc(Br)cc32)Nc2ccccc21` [Compound 1277], the IC50 was 3310 nM at AuroraA; 4770 nM on ABL1; more than 10000 nM at ABL1 (T315I); 146 nM at TYK2; 1900 nM in the test on A2058 melanoma cells (setting [9]); 1250 nM at JAK2. Further, the results for the IC50 (in [1] (setting [10]); at c-Src) were 770 nM and 95.4 nM, respectively.

Consider `CN1CCN(CCO/N=C2/C(=C3/C(=O)Nc4ccc(Br)cc43)Nc3ccccc32)CC1` [Compound 1284], for which the concentration for half-maximal inhibition (IC50) in test [2] came to 1360 nM; in [4], 1000 nM; in test [5] it was 440 nM.

As to `O=C1Nc2ccc(Br)cc2C1=C1Nc2ccccc2C1=NOCCN1CCCC1` [Compound 1281], the IC50 worked out at 750 nM in test [2]; 2050 nM at AuroraA; 2500 nM on ABL1; 440 nM in test [3]; 7080 nM on ABL1 (T315I); 370 nM in [4]. Moreover, the IC50 was 580 nM in test [6]; 21 nM on TYK2; 1800 nM in the test on A2058 melanoma cells (setting [8]); 400 nM in test [5]; 264 nM on JAK2; 660 nM in test [1] (setting [7]). Further, the half-maximal inhibitory concentration (IC50) at c-Src was 19.7 nM.

Turning to `CN(C)CCO/N=C1/C(=C2/C(=O)Nc3ccc(Br)cc32)Nc2ccccc21` [Compound 1501], the IC50 is 880 nM in the test with A2058 melanoma cells (setting [8]) and 320 nM in test [1] (setting [7]).

On to `O=C1Nc2ccc(Br)cc2/C1=C1/Nc2ccccc2/C1=N\OCCN1CCCC1` [Compound 1280], for which the IC50 in test [2] is 1340 nM; in [3] it was 960 nM; in [4] it was 660 nM; in [6], 860 nM; with A2058 melanoma cells (setting [8]), 1600 nM; in test [5], 840 nM. Also, the IC50 in test [1] (setting [7]) was found to be 660 nM.

Consider `O=C1Nc2ccc(Br)cc2C1=C1Nc2ccccc2C1=NOCCN1CCNCC1` [Compound 1289], for which the IC50 in [2] is 460 nM; at AuroraA, 143 nM; at ABL1 it was 71.4 nM; in test [3], 460 nM; at ABL1 (T315I), 214 nM; in [4] it was 400 nM. In addition, the IC50 in test [6] stood at 600 nM; at TYK2 it was 20.1 nM; in the test on A2058 melanoma cells (setting [8]), 1100 nM; in test [5], 380 nM; on JAK2, 47.6 nM; in test [1] (setting [7]) it was 690 nM. In addition, the IC50 at c-Src worked out at 3.7 nM. Further, the “effect on viabilities of SKOV3 ovarian cancer cells” value in test [2] is given as “reduce viabilities”.

For `CN(CCO/N=C1/C(=C2/C(=O)Nc3ccc(Br)cc32)Nc2ccccc21)CC(O)CO` (centres unmarked) [Compound 1278], the 50% inhibitory concentration (IC50) in test [2] was 750 nM; at AuroraA, 122 nM; on ABL1, 392 nM; in [3] it was 2500 nM; at ABL1 (T315I), 1550 nM; in test [4], 710 nM. The IC50 is 500 nM in [6]; 27 nM at TYK2; 1700 nM in the test with A2058 melanoma cells (setting [9]); 600 nM in test [5]; 104 nM on JAK2; 780 nM in test [1] (48 h exposure). Besides, on c-Src, the IC50 came to 12.1 nM.
